Test results published in PMC12040169 (PLOS Biology, 2025).

Test: in vitro
Settings: human, hela cells, % viability

Structure (SMILES) | viability at 28.5 h, 10 µM [%]
O=C(O)c1ccc2c(c1)C(=O)N(c1ccc(-c3ccc(N4C(=O)c5ccc(C(=O)O)cc5C4=O)cc3)cc1)C2=O [CBK261187] | 99.3
O=C(O)c1cc(NC(=O)C(c2ccccc2)c2ccccc2)cc(C(=O)O)c1 [CBK261191] | 93.2
O=C(Nc1cccc(O)c1)c1ccc2c(c1)C(=O)N(c1cccc(N3C(=O)c4ccc(C(=O)Nc5cccc(O)c5)cc4C3=O)n1)C2=O [CBK261199] | 89.8
O=C1c2ccc(Oc3ccc4c(c3)C(=O)N(c3ccccn3)C4=O)cc2C(=O)N1c1ccccn1 [CBK261202] | 99.3
Oc1ccc(/N=C/c2ccc(/C=N/c3ccc(O)cc3)cc2)cc1 [CBK261203] | 98.5
CC(Oc1cccc(Cl)c1)C(=O)NN (stereo not drawn) [CBK261207] | 90.1
NNC(=O)COc1ccc2ccccc2c1 [CBK261208] | 104
CC(Oc1cccc2ccccc12)C(=O)NN (stereo not drawn) [CBK261209] | 112
O=C(O)/C(=N\O)c1ccc(CCc2ccccc2)s1 [CBK261213] | 90.8
NNC(=O)/C(=C\c1ccccc1)CCO [CBK261215] | 117
O=C(O)/C=C\C(=O)Nc1ccc(Oc2ccccc2)cc1 [CBK261216] | 102
Clc1ccccc1C1N(Cc2ccccc2)CCN1Cc1ccccc1 [CBK261217] | 93.8
O=C(CCc1ccccc1)N/N=C/c1cc2c(cc1[N+](=O)[O-])OCO2 [CBK261221] | 111
Clc1cccc(C2N(Cc3ccccc3)CCN2Cc2ccccc2)c1 [CBK261222] | 93.1
COc1cccc(/C=N/c2cc(S(=O)(=O)c3ccc(O)c(/N=C/c4cccc(OC)c4O)c3)ccc2O)c1O [CBK261225] | 92.4
O=[N+]([O-])c1ccc(/C=N/c2ccc(Cc3ccc(/N=C/c4ccc([N+](=O)[O-])s4)cc3)cc2)s1 [CBK261228] | 98.3
Oc1cccc(/C=N/c2ccc(Cc3ccc(/N=C/c4cccc(O)c4)cc3)cc2)c1 [CBK261230] | 103
COc1ccc(Br)cc1/C=N/Nc1nc(NCc2ccccc2)nc(N2CCOCC2)n1 [CBK261232] | 92.9
Oc1ccc2ccccc2c1/C=N/Nc1nc(NCc2ccccc2)nc(N2CCOCC2)n1 [CBK261233] | 93.8

Structure (SMILES) | viability at 28.5 h, 10 µM [%]
O=C(Oc1ccc(/C=N/c2ccc(-c3nc4ccccc4s3)c(O)c2)cc1)c1ccc(Cl)cc1 [CBK261234] | 100
O=[N+]([O-])c1cc(/C=N/Nc2nc(N3CCOCC3)nc(N3CCOCC3)n2)c(O)c([N+](=O)[O-])c1 [CBK261237] | 105
COc1cc(/C=N/c2ccc3oc(-c4ccc(C(C)(C)C)cc4)nc3c2)ccc1OC(=O)c1ccc(Cl)cc1Cl [CBK261238] | 104
COc1cc(/C=N/c2ccc3oc(-c4cccc(I)c4)nc3c2)ccc1OC(=O)c1ccc(Cl)cc1Cl [CBK261239] | 95.3
O=C(Oc1ccc(/C=N/c2ccc(O)c(-c3nc4ccccc4s3)c2)cc1)c1ccccc1Cl [CBK261241] | 89.9
Oc1ccc(/N=C/C=C/c2ccc(Cl)cc2Cl)cc1-c1nc2ccccc2s1 [CBK261242] | 107
COc1cc(/C=N/c2ccc(O)c(-c3nc4ccccc4s3)c2)ccc1OC(=O)c1ccc(Cl)cc1Cl [CBK261243] | 101
O=[N+]([O-])c1cccc(/C=C/C=N/c2ccc3c(c2)S(=O)(=O)c2cc(/N=C/C=C/c4cccc([N+](=O)[O-])c4)ccc2-3)c1 [CBK261244] | 97.6
CC(O)(CC(=O)O)C12CC3CC(CC(C3)C1)C2 (stereo not drawn) [CBK261245] | 114
COc1ccc(/C=C/C(=O)O)cc1S(=O)(=O)Nc1ccc(C(=O)O)cc1 [CBK261246] | 108
O=C(NC(C(=O)N/N=C/c1cccs1)c1n[nH]c(=O)c2ccccc12)c1ccccc1 (stereo not drawn) [CBK261250] | 98
C/C(=N\NC(=O)c1ccccc1O)c1ccc(NC(=O)c2ccc(C)cc2)cc1 [CBK261251] | 84.7
O=S(=O)(c1ccc(-c2ccc(S(=O)(=O)N3CCCCC3)cc2)cc1)N1CCCCC1 [CBK261257] | 92.2
O=C(Nc1ccccc1C(=O)O)c1cccc(S(=O)(=O)NCc2ccccc2)c1 [CBK261258] | 98.1
O=S(=O)(c1cccc(S(=O)(=O)N2CCOCC2)c1)c1ccc(Cl)c(S(=O)(=O)N2CCOCC2)c1 [CBK261260] | 104
O=C(O)c1cccc(NC(=O)c2cccc(S(=O)(=O)Nc3ccc(Cl)cc3)c2)c1 [CBK261261] | 92.6
CC1=C(C)C(=NNC(N)=S)C(C)=C(C)C1=NNC(N)=S [CBK261262] | 91.9
Cc1ccc(-n2nc(-c3ccc(NC(=O)c4ccccc4)cc3)cc2NC(=O)c2ccccc2)cc1 [CBK261265] | 92.3
O=C(O)c1ccc(C(=O)O)c2c(-c3ccc(C(=O)O)c4c(C(=O)O)ccc(C(=O)O)c34)ccc(C(=O)O)c12 [CBK261267] | 98.4

Structure (SMILES) | viability at 28.5 h, 10 µM [%]
CCCCc1ccc(C(=O)CSc2nc(N)c(C#N)c(-c3ccc(O)cc3)c2C#N)cc1 [CBK261268] | 93.4
N#Cc1c(N)nc(SCC(=O)c2cc3ccccc3oc2=O)c(C#N)c1-c1ccc(O)cc1 [CBK261269] | 103
CC(C)(C)c1cc(CCC(c2cc(C(C)(C)C)c(O)c(C(C)(C)C)c2)c2cc(C(C)(C)C)c(O)c(C(C)(C)C)c2)cc(C(C)(C)C)c1O [CBK261271] | 92.9
CC(=O)Nc1ccc(-c2cc(-c3ccc(NC(C)=O)cc3)nc(-c3ccc([N+](=O)[O-])cc3)n2)cc1 [CBK261273] | 91.5
O=C(O)CCC(=O)c1c[nH]c2ccccc12 [CBK261275] | 110
O=C(N/C(=C/c1ccccc1)C(=O)N1CCCCC1)c1ccccc1 [CBK261280] | 94.7
c1ccc(CN2CCN(Cc3ccccc3)C2c2ccc[nH]2)cc1 [CBK261283] | 82.9
COC(=O)Nc1ccc2c(c1)N(C(=O)CCN1CCOCC1)c1ccccc1CC2 [CBK261284C] | 95.9
CCOC(=O)Nc1ccc2c(c1)N(C(=O)CN1CCOCC1)c1ccccc1CC2 [CBK261286C] | 101
CN(C)CC(=O)N1c2ccccc2CCc2ccc(NC(=O)c3ccccc3)cc21 [CBK261289C] | 94.2
CCOC(=O)Nc1ccc2c(c1)N(C(=O)CN(C)C)c1ccccc1S2 [CBK261290C] | 106
O=C(Nc1ccccc1)NC(N1CCOCC1)C(Cl)(Cl)Cl (stereo not drawn) [CBK261293] | 103
O=C(CSc1nc2ccccc2[nH]1)c1ccccc1 [CBK261298] | 92.9
NS(=O)(=O)c1ccc(NC(=O)CCCN2C(=O)/C(=C/c3ccc(Cl)cc3)SC2=S)cc1 [CBK261302] | 87.9
CC1CCN(CN2C(=O)C(=O)c3ccccc32)CC1 [CBK261304] | 91.7
N/N=C(\CCC(=O)O)c1ccccc1 [CBK261306] | 98.3
O=C(O)CC1Sc2ccccc2NC1=O (stereo not drawn) [CBK261308] | 101
CCOC(=O)c1c(C)n(-c2ccc(C)cc2)c2ccc(Oc3ncccc3C#N)cc12 [CBK261310] | 109
CSCCC(NC=C1C(=O)CC(C)(C)CC1=O)C(=O)O (stereo not drawn) [CBK261311] | 92.9
